What follows are molecules tested against Carbonic anhydrase 2 (Bos taurus, UniProt P00921) (assay: Displacement of DNSA from CAII in bovine erythrocytes).
Sequence of Carbonic anhydrase 2 (P00921 whole entry): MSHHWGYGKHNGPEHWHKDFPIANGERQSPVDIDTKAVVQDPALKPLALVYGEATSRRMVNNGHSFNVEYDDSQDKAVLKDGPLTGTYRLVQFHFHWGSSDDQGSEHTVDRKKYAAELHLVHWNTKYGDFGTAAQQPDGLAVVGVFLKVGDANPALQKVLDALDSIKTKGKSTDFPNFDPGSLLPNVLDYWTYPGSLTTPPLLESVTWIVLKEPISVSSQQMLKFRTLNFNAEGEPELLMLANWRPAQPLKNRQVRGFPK

SMILES | Ki [nM]
NS(=O)(=O)c1ccc(C(=O)OC/C=C\CO)cc1 | 9.1
C=CCCCOC(=O)c1ccc(S(N)(=O)=O)cc1 | 7.7
NS(=O)(=O)c1ccc(C(=O)OC/C=C/COC(=O)c2ccc(S(N)(=O)=O)cc2)cc1 | 4.9
C=CCOC(=O)c1ccc(S(N)(=O)=O)cc1 | 8.6
NS(=O)(=O)c1ccc(C(=O)OC/C=C/COC(=O)c2ccccc2)cc1 | 4.7
NS(=O)(=O)c1ccc(C(=O)OC/C=C\COC(=O)c2ccc(S(N)(=O)=O)cc2)cc1 | 9.3
NS(=O)(=O)c1ccc(C(=O)OC/C=C/CO)cc1 | 5.3

Source: ChEMBL document CHEMBL1141953, “Synthesis and structure-activity relationships of novel benzene sulfonamides with potent binding affinity for bovine carbonic anhydrase II” (Bioorg Med Chem Lett, 2005)
